# Legend:
# [1] = test system: BTK C481S expressing lentiviral vector transduced TMD8 ABC-DLBCL cells; assay: CellTiter-Glo cell viability assay in BTK WT or BTK C481S transduced TMD8 cells; format: cell-based; conditions: MYD88 mutated ABC DLBCL cells (TMD8), 72 hrs, FIG. 4
# [2] = test system: BTK C481S expressing lentiviral vector transduced BCWM.1 WM cells; assay: CellTiter-Glo cell viability assay in BTK WT or BTK C481S transduced BCWM.1 cells; format: cell-based; conditions: MYD88 mutated WM cells (BCWM.1), 72 hrs, FIG. 4
smiles,measurement,setting,value
CN1CCN(C2CCC(n3nc(-c4ccc(Oc5ccccc5)cc4)c4c(N)nccc43)CC2)CC1 (centres unmarked) [Compound I-4],drug dose-response in BTK C481S expressing cells (ibrutinib resistance),[1],overcomes BTKC481S mediated ibrutinib resistance
same,drug dose-response in BTK C481S expressing cells (ibrutinib resistance),[2],overcomes BTKC481S mediated ibrutinib resistance
